“And” between values parts separate entries of the source, which are not always exact repeats. Equal entries are not always repeated.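 Assay format: 96-well plates, 48-hour exposure. The concentration for 50% growth inhibition is given as GI50. TGI: total growth inhibition.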
Legend:
Test in all cases: DTP human tumour cell line panel, 48 h
HL-60(TB) leukemia = tested on: HL-60(TB) leukemia
HS 578T breast = tested on: HS 578T breast
UACC-257 melanoma = tested on: UACC-257 melanoma
786-0 renal = tested on: 786-0 renal
RXF 393 renal = tested on: RXF 393 renal
MDA-MB-435 = tested on: MDA-MB-435
OVCAR-8 ovarian = tested on: OVCAR-8 ovarian
SK-MEL-28 melanoma = tested on: SK-MEL-28 melanoma
SF-295 CNS = tested on: SF-295 CNS
MDA-MB-231 breast = tested on: MDA-MB-231 breast

SMILES	GI50 (HL-60(TB) leukemia)	TGI (HL-60(TB) leukemia)	GI50 (HS 578T breast)	TGI (HS 578T breast) [µM]	GI50 (UACC-257 melanoma)	TGI (UACC-257 melanoma)	GI50 (786-0 renal)	TGI (786-0 renal)	GI50 (RXF 393 renal)	TGI (RXF 393 renal)	GI50 (MDA-MB-435)	TGI (MDA-MB-435)	GI50 (OVCAR-8 ovarian)	TGI (OVCAR-8 ovarian)	GI50 (SK-MEL-28 melanoma)	TGI (SK-MEL-28 melanoma)	GI50 (SF-295 CNS)	TGI (SF-295 CNS)	GI50 (MDA-MB-231 breast)	TGI (MDA-MB-231 breast)
Cc1cc(-c2ncc(CC(=O)Nc3ccc(-c4cnccn4)cn3)cc2C)ccn1	39.3 µM	> 100 µM	26 µM	> 100	16.6 µM	> 100 µM	> 100 µM	> 100 µM	42.2 µM	> 100 µM	21.8 µM	> 100 µM	25.6 µM	> 100 µM	28.2 µM	> 100 µM	15.3 µM	> 100 µM	55.7 µM	> 100 µM
COc1cc(C2CC(c3ccc(C)cc3)=NN2C=O)ccc1Oc1ccnc2cc(Cl)ccc12 (configuration not stated)	> 50 µM	> 50 µM	1.82 µM	> 50	> 50 µM	> 50 µM	5.07 µM	19.6 µM	4.16 µM	20.5 µM	> 50 µM	> 50 µM	–	–	> 50 µM	> 50 µM	4.41 µM	23.7 µM	4.23 µM	43.8 µM
CNc1ccc2nc3ccc(=[N+](C)C)cc-3sc2c1	0.236 µM and 0.343 µM	1.41 µM and 3.39 µM	4.68 µM and 1.98 µM	–	0.962 µM and 0.331 µM	4.52 µM and 1.91 µM	3.84 µM and 1.27 µM	17.6 µM and 16 µM	3.53 µM and 5.32 µM	11.4 µM and 14.3 µM	0.547 µM and 0.785 µM	2.33 µM and 2.85 µM	0.298 µM and 0.278 µM	1.79 µM and 1.55 µM	4.25 µM and 1.55 µM	14.8 µM and 9.27 µM	1.35 µM and 0.411 µM	10.3 µM and 3.22 µM	0.426 µM and 0.345 µM	5.59 µM and 3.63 µM
O=C1NCc2ccc3c(-c4cccc(Cl)c4)c[nH]c3c21	0.146 µM	–	0.182 µM	> 50	> 42.9 µM	> 50 µM	0.276 µM	> 50 µM	0.296 µM	> 15.4 µM	0.0604 µM	0.239 µM	0.503 µM	> 50 µM	2.21 µM	> 50 µM	0.199 µM	> 50 µM	0.838 µM	> 25.7 µM
C=CCn1c2c(c3ccccc3c1=O)C(=O)c1ccccc1-2	–	> 100 µM	–	> 100	–	> 100 µM	–	> 100 µM	–	> 100 µM	–	> 100 µM	–	> 100 µM	–	> 100 µM	–	> 100 µM	–	> 100 µM
O=C(CCCCCCSc1nc(-c2ccccc2)cc(-c2ccc(Cl)cc2)n1)NO	2.16 µM	4.84 µM	2.76 µM	20.1	2.67 µM	11.4 µM	2.22 µM	6.92 µM	1.57 µM	3.89 µM	2.24 µM	10.9 µM	1.93 µM	10.2 µM	2.94 µM	12.1 µM	2.45 µM	6.7 µM	2.65 µM	8.96 µM
COc1ccc(-c2nn3ncccc3c2-c2ccnc(Nc3ccc(Cl)c(C(F)(F)F)c3)n2)cc1	11.9 µM	> 25 µM	9.15 µM	> 25	11.5 µM	> 25 µM	11 µM	> 25 µM	5.66 µM	> 24 µM	9.69 µM	> 25 µM	8.58 µM	> 25 µM	16.9 µM	> 25 µM	9.96 µM	> 25 µM	8.56 µM	> 25 µM
COc1cc(-c2nn(-c3ccc(NC(=O)c4ccc(Cl)c(Cl)c4)cc3)cc2-c2ccncc2)ccc1Cl	8.03 µM	> 100 µM	4.13 µM	> 100	> 100 µM	> 100 µM	2.05 µM	4.59 µM	1.5 µM	4.53 µM	7.14 µM	> 100 µM	5.28 µM	> 100 µM	40.3 µM	> 100 µM	1.94 µM	4.57 µM	3.66 µM	> 100 µM
C=C1CC2(OC1=O)C(=O)N(CCCCCCCN1C(=O)C3(CC(=C)C(=O)O3)c3ccccc31)c1ccccc12 (configuration not stated)	0.992 µM	3.21 µM	5.92 µM	32.3	2.14 µM	8.76 µM	1.49 µM	5.42 µM	0.86 µM	2.06 µM	1.29 µM	3.92 µM	1.16 µM	5.05 µM	1.94 µM	7.3 µM	10.2 µM	25 µM	1.18 µM	3.49 µM
Cc1ncc(CN=Cc2ccc(Cl)cc2)c(N)n1	–	> 100 µM	–	> 100	–	> 100 µM	–	> 100 µM	–	> 100 µM	–	> 100 µM	–	> 100 µM	–	> 100 µM	–	> 100 µM	–	> 100 µM
CCOC(=O)c1ccc(NC(=O)N2CC(C)OC(C)C2)cc1 (configuration not stated)	> 100 µM	> 100 µM	> 100 µM	> 100	> 100 µM	> 100 µM	> 100 µM	> 100 µM	> 100 µM	> 100 µM	> 100 µM	> 100 µM	> 100 µM	> 100 µM	> 100 µM	> 100 µM	> 100 µM	> 100 µM	> 100 µM	> 100 µM
CN(C)c1cccc2c(S(=O)(=O)N[C@H]3CC[C@H]4[C@@H]5CCc6cc(O)ccc6[C@H]5CC[C@]34C)cccc12	2.78 µM	8.23 µM	2.86 µM	11.3	2.51 µM	11.5 µM	3.18 µM	9.78 µM	2.02 µM	4.34 µM	1.15 µM	2.69 µM	3.3 µM	15.9 µM	2.2 µM	5.89 µM	1.02 µM	2.7 µM	1.75 µM	4.41 µM
Cc1c2c(nn1-c1ccc(S(=O)(=O)NC(=S)Nc3ccccc3)cc1)-c1ccccc1CC2	> 50 µM	> 50 µM	44.6 µM	> 50	> 50 µM	> 50 µM	26.4 µM	> 50 µM	> 50 µM	> 50 µM	14.4 µM	> 50 µM	> 50 µM	> 50 µM	> 50 µM	> 50 µM	> 50 µM	> 50 µM	> 50 µM	> 50 µM
COc1cccc(C2CC(C)(N3CCCC3)Oc3cc4c(cc32)OCO4)c1O (configuration not stated)	–	> 54.2 µM	–	57.7	–	> 100 µM	–	> 100 µM	–	> 80.6 µM	–	18.4 µM	–	> 73.2 µM	–	> 51.5 µM	–	59.6 µM	–	80.5 µM
COc1cc2c(cc1OC)C(=O)/C(=C/c1cccc(OCC(=O)c3ccccc3)c1)C2	6.44 µM	61.8 µM	13.1 µM	75.2	49.1 µM	> 100 µM	35.5 µM	> 100 µM	35.4 µM	> 100 µM	23.1 µM	> 100 µM	5.04 µM	> 100 µM	58.4 µM	> 100 µM	5.06 µM	40.8 µM	23.8 µM	> 100 µM
COc1ccc2c(c1)/C(=C\c1c(C)nc3sc(C)cn13)C(=O)N2C	–	–	1.83 µM	5.4	21.8 µM	> 100 µM	8.92 µM	> 100 µM	4.84 µM	48.3 µM	1.51 µM	5.72 µM	6.14 µM	> 100 µM	7.26 µM	35.5 µM	2.25 µM	6.88 µM	4.59 µM	65 µM
CN1CC[C@@H](c2c(O)cc(O)c3c(=O)cc(-c4ccccc4Cl)oc23)[C@@H](O)C1	0.0148 µM	0.0693 µM and 0.338 µM	0.0675 µM and 0.11 µM and 0.0213 µM	–	0.125 µM and 0.137 µM	0.366 µM and 0.619 µM and 0.282 µM	0.108 µM	17.9 µM	0.0481 µM and 0.0218 µM and 0.0196 µM	0.0892 µM and 0.0495 µM and 0.0428 µM	0.0886 µM and 0.0744 µM	0.261 µM and 0.22 µM and 0.342 µM	–	–	0.101 µM and 0.0902 µM	0.294 µM and 1.45 µM	0.0994 µM and 0.0955 µM and 0.0425 µM	–	0.168 µM	0.613 µM and 2.86 µM
CC(=O)n1c(COS(C)(=O)=O)nc2ccccc21	–	–	–	> 100	–	> 100 µM	–	> 100 µM	–	> 100 µM	–	> 100 µM	–	> 100 µM	–	> 100 µM	–	> 100 µM	–	> 100 µM
N#Cc1c(Sc2ccccc2N)cccc1Sc1ccccc1N	16.4 µM	–	22.5 µM	–	21.3 µM	–	37.8 µM	–	72.8 µM	–	43.2 µM	–	53.8 µM	–	–	–	84 µM	–	49.8 µM	–
CN1CCN(CN2C(=O)C3C4C=CC(C3C2=O)C2C3C(=O)N(CN5CCN(C)CC5)C(=O)C3C42)CC1 (configuration not stated)	–	–	–	> 100	35.7 µM and 25 µM and 62.2 µM	84.4 µM and 54.3 µM and > 100 µM	–	34.3 µM and 40.3 µM and 36 µM	–	41.4 µM and 34.7 µM and 36.2 µM	–	31.3 µM	–	35.7 µM and > 65.3 µM and 59.9 µM	–	49.3 µM and > 61.8 µM and 35.3 µM	32.2 µM and 86.2 µM and 49.2 µM	97.4 µM and > 100 µM	–	56.8 µM
C=C1C(=O)O[C@H]2[C@H]1CC/C(Cn1cc(CNC(=O)Cc3cn(C(=O)c4ccc(Cl)cc4)c4ccc(OC)cc34)nn1)=C\CC[C@@]1(C)O[C@@H]21	–	–	2.61 µM	6.78	1.75 µM	3.39 µM	1.59 µM	3.02 µM	1.25 µM	2.59 µM	1.71 µM	3.45 µM	2.62 µM	8.3 µM	1.62 µM	3.07 µM	5.78 µM	25.7 µM	1.58 µM	3.12 µM

Source: PubChem BioAssay (NCI)
